In ChEMBL document CHEMBL4184301, “Two new coumarins and a new xanthone from the leaves of Rhizophora mucronata” (Bioorg Med Chem Lett, 2018):

Assays:
[1] = Selectivity index, ratio of CC50 for mouse […] cells to IC50 for human HL60 cells; assay type: toxicity; conditions: NIH/3T3 cells (printed […]) and HL60 cells, read-out: Ratio CC50/IC50
[2] = Cytotoxicity against mouse NIH/3T3 cells after 48 hrs by CCK8 assay; assay type: cell-based, NIH3T3
[3] = test system: HeLa; experiment: Antiproliferative activity against human HeLa cells after 48 hrs by CCK8 assay; assay type: functional, cell-based
[4] = test system: HL-60; experiment: Antiproliferative activity against human HL60 cells after 48 hrs by CCK8 assay; assay type: functional, cell-based; conditions: HL-60, 48 h

Structure (SMILES) | selectivity ratio [1] | CC50 at 48 h [2] [µM] | IC50 [3] [µM] | IC50 [4] [µM]
C/C=C(\C)C(=O)c1c(O)c(/C(=C/C(=O)O)c2ccccc2)c2c(c1OC)C=CC(C)(C)O2 | 19.2 | 41.1 | 36.4 | 2.2
C[C@H]1Oc2c3c(c4c(-c5ccccc5)cc(=O)oc4c2C(=O)[C@@H]1C)OC(C)(C)C=C3 | – | – | 8.3 | 35.3
C[C@@H]1C(=O)c2c(c3c(c4c(-c5ccccc5)cc(=O)oc24)OC(C)(C)C=C3)O[C@@H]1C | – | – | 21.6 | > 60
CC(C)=CCc1c(O)cc2oc3c(O)cccc3c(=O)c2c1O | – | – | 37.1 | 6.3
C=C(C)C(O)Cc1c(O)cc2c(=O)c3cccc(O)c3oc2c1O (stereo unspecified) | – | – | 14.5 | 36.8
C/C=C(\C)C(=O)c1c(OC)c2c(c3c(-c4ccccc4)cc(=O)oc13)OC1C2C1(C)C (stereo unspecified) | 8.6 | 22.3 | 29.9 | 2.6
CO[C@H]1c2c(c3c(c4c(-c5ccccc5)cc(=O)oc24)OC(C)(C)C=C3)O[C@H](C)[C@H]1C | – | – | 3.8 | 12.9
C/C=C(/C)C(=O)c1c2c(c(OC)c3c(-c4ccccc4)cc(=O)oc13)C=CC(C)(C)O2 | – | – | 42.8 | 18.3
CC1(C)C=Cc2c(cc3oc4c(O)cccc4c(=O)c3c2O)O1 | 9.4 | 25.3 | 26 | 2.7
C[C@H]1Oc2c3c(c(C(=CC(=O)O)c4ccccc4)c(O)c2C(=O)[C@@H]1C)OC(C)(C)C=C3 (mixture of isomers) | – | – | > 60 | 24.5
COC(=O)C=C(c1ccccc1)c1c(O)c2c(c3c1OC(C)(C)C=C3)O[C@H](C)[C@@H](C)C2=O (mixture of isomers) | – | – | 33 | 10.7
C[C@@H]1C(=O)c2c(O)c(C(=CC(=O)O)c3ccccc3)c3c(c2O[C@@H]1C)C=CC(C)(C)O3 (mixture of isomers) | – | – | 21.2 | 35.6
O=C(O)c1cccc(O)c1O [2,3-DIHYDROXYBENZOIC ACID] | – | – | > 60 | > 60
O=c1cc(-c2ccc(O)c(-c3c(O)cc(O)c4c(=O)cc(-c5ccc(O)cc5)oc34)c2)oc2cc(O)cc(O)c12 [AMENTOFLAVONE] | – | – | 5.3 | 51.2
O=c1cc(-c2ccc(O)cc2)oc2cc(O)cc(O)c12 [APIGENIN] | – | – | 21.3 | 22.3
CC(C)=CCc1c2c(c3oc(=O)cc(-c4ccccc4)c3c1O)C(=O)[C@H](C)[C@@H](C)O2 [BRASIMARIN C] | – | – | 4.4 | 10.1
CC1(C)C=Cc2c(cc3oc4c(O)c(O)ccc4c(=O)c3c2O)O1 [JACAREUBIN] | 10.2 | 10.2 | 4.8 | 1
CO[C@@]12[C@H](COC(N)=O)C3=C(C(=O)C(C)=C(N)C3=O)N1C[C@@H]1N[C@@H]12 [MITOMYCIN] | – | – | 1.13 | 0.19
CC(=O)O[C@H]1C(=O)[C@@]2(C)[C@H]([C@H](OC(=O)c3ccccc3)[C@]3(O)C[C@H](OC(=O)[C@H](O)[C@@H](NC(=O)c4ccccc4)c4ccccc4)C(C)=C1C3(C)C)[C@]1(OC(C)=O)CO[C@@H]1C[C@@H]2O [PACLITAXEL] | – | – | 0.023 | 0.0026
